Values joined by “and” are separate entries in the source; they are usually repeats but may differ in a detail not shown here. Identical values can stand only once.
How the values were obtained:
[1] = test system: Protein-glutamine gamma-glutamyltransferase E (TGM3); experiment: TMT MS proteomics in HeLa cells, TGM3 abundance; format: cell-based, Homo sapiens; conditions: 1 µM, 10 h, two replicates
Method: (§1) MS proteomics. Sample preparation. HeLa cells were seeded at 5 × 10^6 on a 10 cm plate 16 h before treatment. […] Cells were incubated at 37 °C and 5% CO2 for 10 h before harvesting. Cells were placed on ice and medium was removed and cells were washed twice with cold PBS. Cells were lysed in 0.5 ml of 100 mM Tris pH 8.0, 4% (w/v) SDS supplemented with protease inhibitor cocktail (Roche). The lysate was pulse sonicated briefly and then centrifuged at 17,000 × g for 15 min at 4 °C. The supernatant fraction of cell extract was snap-frozen in liquid nitrogen and stored in −80 °C freezer. Further sample processing, digestion, desalting, labeling and fractionation were performed as previously described.
(§2) nLC-MS/MS analysis. The TMT 10plex fractions were first analyzed as previously described. Briefly, the TMT 10plex fractions were analyzed sequentially on a Q Exactive HF Hybrid Quadrupole-Orbitrap Mass Spectrometer (Thermo Scientific) coupled to an UltiMate 3000 RSLCnano UHPLC system (Thermo Scientific) and EasySpray column (75 μm × 50 cm, PepMap RSLC C18 column, 2 μm, 100 Å, Thermo Scientific). The MS2 isolation window was set to 0.4 Da and the resolution set at 120,000. MS2 resolution was set at 60,000. The AGC targets for MS1 and MS2 were set at 3e^6 ions and 1e5 ions, respectively. The normalized collision energy was set at 32%. […] After the first analysis, the TMT labeled fractions were re-analyzed on the Q-Exactive HF using the same instrument settings and a target list generated from a theoretical trypsin digest of VHL. […] After the second analysis, two fractions were further analyzed using a targeted SIM/ddMS2 method on the Q-Exactive HF. […]
(§3) Peptide and protein identification. All the raw MS data files from the three analyses were merged and searched against the Uniprot-sprot-Trembl-Human-Canonical database by Maxquant software 1.5.3.30 for protein identification and TMT reporter ion quantitation. […] Quantified proteins were filtered if the absolute fold-change difference between the two DMSO replicates was ≥ 1.5.

[2] = test system: HeLa cells; experiment: Isobaric tagging (TMT) MS proteomics in HeLa cells, proteome-wide degradation; format: cell-based, Human; conditions: 1 µM for 10 h, compared to DMSO or VHL inhibitor treatment
Method: as §1, §2, §3

[3] = target: pVHL19 (Homo sapiens, UniProt P40337); experiment: Isothermal titration calorimetry (ITC) against VCB complex with short VHL isoform (V19CB); format: binding; design: made in house; conditions: for ΔG / ΔH / −TΔS / Kd / n: 25 °C; for ΔG / ΔH / −TΔS / α: pVHL19; for Kd / n: pVHL19 (V19CB); for n: stoichiometry of binding; for α: avidity / cooperativity compared to VH032, ITC
Sequence of pVHL19 (P40337 54-213): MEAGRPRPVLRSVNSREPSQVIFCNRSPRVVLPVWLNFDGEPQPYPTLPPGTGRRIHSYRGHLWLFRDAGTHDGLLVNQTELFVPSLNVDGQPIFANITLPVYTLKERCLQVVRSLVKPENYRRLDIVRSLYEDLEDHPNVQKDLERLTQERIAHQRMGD
Sequence of pVHL19 (Q15369 17-112 partner limits assumed): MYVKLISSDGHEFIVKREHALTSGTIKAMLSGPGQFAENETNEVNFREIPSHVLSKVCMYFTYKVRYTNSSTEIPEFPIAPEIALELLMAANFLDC
Sequence of pVHL19 (Q15370 1-104 partner limits assumed): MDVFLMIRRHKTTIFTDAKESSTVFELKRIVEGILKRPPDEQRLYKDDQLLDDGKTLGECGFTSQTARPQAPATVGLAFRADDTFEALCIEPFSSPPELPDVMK
Method: Protein expression and purification. Human proteins VHL (UniProt accession number: P40337), ElonginC (Q15369), and ElonginB (Q15370) were used for all protein expression. The short-isoform-containing VCB complex (V19CB) was expressed, purified and stored as described previously. For expression of the long-isoform-containing VCB complex (V30CB), N-terminally His6-tagged VHL (1–213), ElonginC (17–112) and ElonginB (1–104) were co-expressed in Escherichia coli BL21(DE3) at 20 °C for 18 h using 0.5 mM isopropyl β-D-1-thiogalactopyranoside (IPTG). E. coli cells were resuspended in binding buffer (50 mM HEPES, pH 8.0, 500 mM NaCl, 10 mM imidazole and 5 mM β-mercaptoethanol), lysed using a pressure cell homogenizer (Stansted Fluid Power), and lysate clarified by centrifugation. The supernatant was loaded onto a HisTrap FF affinity column (GE Healthcare) equilibrated with binding buffer, and bound protein was eluted using an imidazole gradient. The His6 tag was removed using thrombin protease (Sigma), and the untagged complex was dialyzed into binding buffer. V30CB was then loaded onto the HisTrap FF column a second time, allowing impurities to bind as the complex eluted without binding. The flow-through was dialyzed using a low-salt buffer (20 mM HEPES, pH 8.0, 25 mM NaCl and 1 mM DTT) and then loaded onto a Resource Q anion exchange column (GE Healthcare); bound protein was eluted across a linear NaCl gradient. V30CB was then additionally purified by size-exclusion chromatography using a Superdex-75 16/600 column (GE Healthcare) equilibrated with 20 mM HEPES, pH 7.5, 100 mM sodium chloride and 1 mM TCEP. All chromatography purification steps were performed using Äkta FPLC purification systems (GE Healthcare).
Isothermal titration calorimetry (ITC). Titrations were performed on an ITC200 micro-calorimeter (GE Healthcare). […] The final DMSO concentration was 0.15% v/v. VCB protein experiments were carried out in a buffer containing 20 mM Bis-tris propane, 150 mM NaCl, 1 mM TCEP, 0.15% v/v DMSO, pH 7.4. The titrations consisted of 19 injections of 2 µL compounds solution (150 µM, in the syringe) at a rate of 0.5 µl s^−1 at 120 s time intervals into the VCB protein solution (20 µM, in the cell). An initial injection of compound solution (0.4 µL) was made and discarded during data analysis. All experiments were performed at 25 °C, whilst stirring the syringe at 600 rpm. The data were fitted to a single binding site model to obtain the stoichiometry n, the dissociation constant K d and the enthalpy of binding ΔH using the Microcal LLC ITC200 Origin software provided by the manufacturer.

[4] = test system: Dermcidin (DCD); experiment: TMT MS proteomics in HeLa cells, DCD abundance; format: cell-based, Homo sapiens; conditions: 1 µM, 10 h, two replicates
Method: as §1, §2, §3

[5] = test system: Alsin (ALS2); experiment: TMT MS proteomics in HeLa cells, ALS2 abundance; format: cell-based, Homo sapiens; conditions: 1 µM, 10 h, two replicates
Method: as §1, §2, §3

For `Cc1ncsc1-c1ccc(CNC(=O)[C@@H]2C[C@@H](O)CN2C(=O)[C@@H](NC(=O)COCCOCCOCCOCC(=O)N[C@H](C(=O)N2C[C@H](O)C[C@H]2C(=O)NCc2ccc(-c3scnc3C)cc2)C(C)(C)C)C(C)(C)C)cc1` [CM09, N ^1 ,N ^14-bis((S)-1-((2S,4R)-4-hydroxy-2-((4-(4-methylthiazol-5-yl)benzyl)carbamoyl)pyrrolidin-1-yl)-3,3-dimethyl-1-oxobutan-2-yl)-3,6,9,12-tetraoxatetradecanediamide], which “average normalized ratio to DMSO, TGM3” value [1] is on record?
Its value is 1.74.

What about the “proteins depleted amongst 6,450 detected proteins” value [2] of the same compound?
The value was “no proteins other than Cul2 were substantially depleted”.

And the ΔG ([3]; ITC)?
The ΔG was “–10.3 ± 0.2 kcal mol^−1”.

What about the ΔH ([3]; ITC) of the same compound?
The ΔH was “–6.9 ± 0.3 kcal mol^−1”.

What about the “−TΔS” value ([3]; ITC) of the same compound?
Its value is “–3.5 ± 0.5 kcal mol^−1”.

What about the Kd ([3]; ITC) of the same compound?
Its Kd is 0.041 ± 0.015 µM.

What about the n ([3]; ITC) of the same compound?
Its n is 0.98 ± 0.09.

And the α [3]?
The α was 4.

And the “average normalized ratio to DMSO, DCD” value [4]?
Its value is 1.41.

What about the “average normalized ratio to DMSO, ALS2” value [5] of the same compound?
The value was 0.98.

How did the “average normalized ratio to DMSO, TGM3” value [1] turn out when `Cc1ncsc1-c1ccc(CNC(=O)[C@@H]2C[C@@H](O)CN2C(=O)[C@@H](NC(=O)COCCOCCOCCOCCOCC(=O)N[C@H](C(=O)N2C[C@H](O)C[C@H]2C(=O)NCc2ccc(-c3scnc3C)cc2)C(C)(C)C)C(C)(C)C)cc1` [CM10, N ^1 ,N ^17-bis((S)-1-((2S,4R)-4-hydroxy-2-((4-(4-methylthiazol-5-yl)benzyl)carbamoyl)pyrrolidin-1-yl)-3,3-dimethyl-1-oxobutan-2-yl)-3,6,9,12,15-pentaoxaheptadecanediamide] was run?
Its value is 0.99.

What about the “proteins depleted amongst 6,450 detected proteins” value [2] of the same compound?
Its value is “no proteins other than Cul2 were substantially depleted”.

And the ΔG ([3]; ITC)?
The ΔG was “–10.2 ± 0.1 kcal mol^−1”.

What about the ΔH ([3]; ITC) of the same compound?
Its ΔH is “–9.4 ± 0.1 kcal mol^−1”.

And the “−TΔS” value ([3]; ITC)?
The value was “–0.8 ± 0.2 kcal mol^−1”.

And the Kd ([3]; ITC)?
Its Kd is 0.032 ± 0.005 µM.

What about the n ([3]; ITC) of the same compound?
The n was 0.73 ± 0.01.

What about the α [3] of the same compound?
The α was 6.

And the “average normalized ratio to DMSO, DCD” value [4]?
The value was 1.33.

What about the “average normalized ratio to DMSO, ALS2” value [5] of the same compound?
Its value is 1.00.

What does the source list for `Cc1ncsc1-c1ccc(CNC(=O)[C@@H]2C[C@@H](O)CN2C(=O)[C@@H](NC(=O)COCCOCCOCCOCCOCCOCC(=O)N[C@H](C(=O)N2C[C@H](O)C[C@H]2C(=O)NCc2ccc(-c3scnc3C)cc2)C(C)(C)C)C(C)(C)C)cc1` [CM11, N ^1 ,N ^20-bis((S)-1-((2S,4R)-4-hydroxy-2-((4-(4-methylthiazol-5-yl)benzyl)carbamoyl)pyrrolidin-1-yl)-3,3-dimethyl-1-oxobutan-2-yl)-3,6,9,12,15,18-hexaoxaicosanediamide]?
average normalized ratio to DMSO, TGM3 [1]: 0.72; proteins depleted amongst 6,450 detected proteins [2]: no proteins other than Cul2 were substantially depleted; ΔG ([3]; ITC): –10.9 ± 0.1 kcal mol^−1; −TΔS ([3]; ITC): 1.4 kcal/mol and 1.4 ± 0.8 kcal/mol; Kd ([3]; ITC): 0.011 ± 0.002 µM; n ([3]; ITC): 0.6 ± 0.01; avidity (cooperativity α) compared to VH032 ([3]; ITC, VCB): > 18 fold; α [3]: 18; average normalized ratio to DMSO, DCD [4]: 0.87; average normalized ratio to DMSO, ALS2 [5]: 0.98

— PMC5635026, “Homo-PROTACs: bivalent small-molecule dimerizers of the VHL E3 ubiquitin ligase to induce self-degradation” (Nature Communications, 2017)
